PubChem BioAssay AID1963959 (Molecular Pharmacology Branch, DTP, NCI, 2024)

Test system: T-47D spheroids with HUVEC/MSC, viability
Assay: Anticancer human tumor T-47D cell line growth inhibition [PI3K];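 also: spheroids exposed to agents for seven days before reading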;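 as to viability, T/C: percent of DMSO vehicle control luminescence so 100% = untreated growth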
Settings: for IC50: curve of first compound; for viability, T/C: stronger effect = lower value
Summary of the method: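 Stroma-containing spheroids: tumor line, pooled-donor HUVEC, hMSC. Treatments: targeted agents with PI3K inhibitors. Dosing: clinically relevant, half-log spacing, 10 microM ceiling without known Cmax. Read-out: cell viability.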

[1] = second compound 0.0316 µM, first compound 0.0316 µM
[2] = second compound 0.0316 µM, first compound 0.1 µM
[3] = second compound 0.0316 µM, first compound 0.316 µM
[4] = second compound 0.0316 µM, first compound 1 µM
[5] = second compound 0.0316 µM, first compound 3.16 µM
[6] = second compound 0.0316 µM, first compound 10 µM
[7] = second compound 0.1 µM, first compound 0.0316 µM
[8] = second compound 0.1 µM, first compound 0.1 µM
[9] = second compound 0.1 µM, first compound 0.316 µM
[10] = second compound 0.1 µM, first compound 1 µM
[11] = second compound 0.1 µM, first compound 3.16 µM
[12] = second compound 0.1 µM, first compound 10 µM
[13] = second compound 0.316 µM, first compound 0.0316 µM
[14] = second compound 0.316 µM, first compound 0.1 µM
[15] = second compound 0.316 µM, first compound 0.316 µM
[16] = second compound 0.316 µM, first compound 1 µM
[17] = second compound 0.316 µM, first compound 3.16 µM
[18] = second compound 0.316 µM, first compound 10 µM
[19] = second compound 1 µM, first compound 0.0316 µM
[20] = second compound 1 µM, first compound 0.1 µM
[21] = second compound 1 µM, first compound 0.316 µM
[22] = second compound 1 µM, first compound 1 µM
[23] = second compound 1 µM, first compound 3.16 µM
[24] = second compound 1 µM, first compound 10 µM
[25] = second compound 3.16 µM, first compound 0.0316 µM
[26] = second compound 3.16 µM, first compound 0.1 µM
[27] = second compound 3.16 µM, first compound 0.316 µM
[28] = second compound 3.16 µM, first compound 1 µM
[29] = second compound 3.16 µM, first compound 3.16 µM
[30] = second compound 3.16 µM, first compound 10 µM
[31] = second compound 10 µM, first compound 0.0316 µM
[32] = second compound 10 µM, first compound 0.1 µM
[33] = second compound 10 µM, first compound 0.316 µM
[34] = second compound 10 µM, first compound 1 µM
[35] = second compound 10 µM, first compound 3.16 µM
[36] = second compound 10 µM, first compound 10 µM

Compound: C=CC(=O)N1CCN(c2nc(=O)n(-c3c(C)ccnc3C(C)C)c3nc(-c4c(O)cccc4F)c(F)cc23)C(C)C1 (stereo not given) + CC(Nc1ncnc2nc[nH]c12)c1cc2cccc(Cl)c2c(=O)n1-c1ccccc1
- IC50 (second compound 0.0316 µM): > 10 µM
- IC50 (second compound 0.1 µM): > 10 µM
- IC50 (second compound 0.316 µM): > 10 µM
- IC50 (second compound 1 µM): > 10 µM
- IC50 (second compound 3.16 µM): > 10 µM
- IC50 (second compound 10 µM): > 10 µM
- viability, T/C [1]: 98.2%
- viability, T/C [2]: 80.2%
- viability, T/C [3]: 93.8%
- viability, T/C [4]: 92.8%
- viability, T/C [5]: 105%
- viability, T/C [6]: 112%
- viability, T/C [7]: 121%
- viability, T/C [8]: 73%
- viability, T/C [9]: 90.1%
- viability, T/C [10]: 86.4%
- viability, T/C [11]: 115%
- viability, T/C [12]: 139%
- viability, T/C [13]: 107%
- viability, T/C [14]: 110%
- viability, T/C [15]: 93.6%
- viability, T/C [16]: 85.3%
- viability, T/C [17]: 89.6%
- viability, T/C [18]: 117%
- viability, T/C [19]: 74.3%
- viability, T/C [20]: 89.2%
- viability, T/C [21]: 88.5%
- viability, T/C [22]: 98.4%
- viability, T/C [23]: 118%
- viability, T/C [24]: 115%
- viability, T/C [25]: 75.5%
- viability, T/C [26]: 92.3%
- viability, T/C [27]: 94%
- viability, T/C [28]: 94.1%
- viability, T/C [29]: 107%
- viability, T/C [30]: 122%
- viability, T/C [31]: 100%
- viability, T/C [32]: 92.5%
- viability, T/C [33]: 94%
- viability, T/C [34]: 112%
- viability, T/C [35]: 106%
- viability, T/C [36]: 113%

Compound: CC(Cn1ccc(-c2ccc(C#N)c(Cl)c2)n1)NC(=O)c1cc(C(C)O)[nH]n1 (stereo not given) + CC(Nc1ncnc2nc[nH]c12)c1cc2cccc(Cl)c2c(=O)n1-c1ccccc1
- IC50 (second compound 0.0316 µM): > 10 µM
- IC50 (second compound 0.1 µM): > 10 µM
- IC50 (second compound 0.316 µM): > 10 µM
- IC50 (second compound 1 µM): > 10 µM
- IC50 (second compound 3.16 µM): > 10 µM
- IC50 (second compound 10 µM): > 10 µM
- viability, T/C [1]: 83.6%
- viability, T/C [2]: 76.1%
- viability, T/C [3]: 87.8%
- viability, T/C [4]: 90%
- viability, T/C [5]: 86.2%
- viability, T/C [6]: 51%
- viability, T/C [7]: 93.1%
- viability, T/C [8]: 80%
- viability, T/C [9]: 75.7%
- viability, T/C [10]: 82.3%
- viability, T/C [11]: 85.6%
- viability, T/C [12]: 54.9%
- viability, T/C [13]: 90.7%
- viability, T/C [14]: 107%
- viability, T/C [15]: 86.4%
- viability, T/C [16]: 87.5%
- viability, T/C [17]: 74.9%
- viability, T/C [18]: 62.1%
- viability, T/C [19]: 80.2%
- viability, T/C [20]: 77.4%
- viability, T/C [21]: 92.9%
- viability, T/C [22]: 80.9%
- viability, T/C [23]: 74.4%
- viability, T/C [24]: 64%
- viability, T/C [25]: 84.5%
- viability, T/C [26]: 86.5%
- viability, T/C [27]: 87.7%
- viability, T/C [28]: 85.7%
- viability, T/C [29]: 81.4%
- viability, T/C [30]: 52.4%
- viability, T/C [31]: 80.7%
- viability, T/C [32]: 84.3%
- viability, T/C [33]: 75.2%
- viability, T/C [34]: 80.1%
- viability, T/C [35]: 72.2%
- viability, T/C [36]: 56.4%

Compound: CCN1CCN(Cc2ccc(Nc3ncc(F)c(-c4cc(F)c5nc(C)n(C(C)C)c5c4)n3)nc2)CC1 + CC(Nc1ncnc2nc[nH]c12)c1cc2cccc(Cl)c2c(=O)n1-c1ccccc1
- IC50 (second compound 0.0316 µM): > 1 µM
- IC50 (second compound 0.1 µM): > 1 µM
- IC50 (second compound 0.316 µM): > 1 µM
- IC50 (second compound 1 µM): > 1 µM
- IC50 (second compound 3.16 µM): > 1 µM
- IC50 (second compound 10 µM): > 1 µM
- viability, T/C (second compound 0.0316 µM, first compound 0.00316 µM): 107%
- viability, T/C (second compound 0.0316 µM, first compound 0.01 µM): 97.2%
- viability, T/C [1]: 91.7%
- viability, T/C [2]: 74.7%
- viability, T/C [3]: 95.7%
- viability, T/C [4]: 94.5%
- viability, T/C (second compound 0.1 µM, first compound 0.00316 µM): 114%
- viability, T/C (second compound 0.1 µM, first compound 0.01 µM): 87.1%
- viability, T/C [7]: 81.8%
- viability, T/C [8]: 96%
- viability, T/C [9]: 88.5%
- viability, T/C [10]: 92.3%
- viability, T/C (second compound 0.316 µM, first compound 0.00316 µM): 103%
- viability, T/C (second compound 0.316 µM, first compound 0.01 µM): 98.5%
- viability, T/C [13]: 82.6%
- viability, T/C [14]: 78.8%
- viability, T/C [15]: 93.6%
- viability, T/C [16]: 106%
- viability, T/C (second compound 1 µM, first compound 0.00316 µM): 112%
- viability, T/C (second compound 1 µM, first compound 0.01 µM): 93.2%
- viability, T/C [19]: 91%
- viability, T/C [20]: 84.1%
- viability, T/C [21]: 89.7%
- viability, T/C [22]: 106%
- viability, T/C (second compound 3.16 µM, first compound 0.00316 µM): 93.5%
- viability, T/C (second compound 3.16 µM, first compound 0.01 µM): 80.9%
- viability, T/C [25]: 85.6%
- viability, T/C [26]: 77.2%
- viability, T/C [27]: 89.9%
- viability, T/C [28]: 85.9%
- viability, T/C (second compound 10 µM, first compound 0.00316 µM): 77.7%
- viability, T/C (second compound 10 µM, first compound 0.01 µM): 89.4%
- viability, T/C [31]: 82.2%
- viability, T/C [32]: 72.8%
- viability, T/C [33]: 71.9%
- viability, T/C [34]: 82.1%

Compound: Cn1ncc(Cl)c1-c1cc(C(=O)NC(CN)Cc2cccc(F)c2)sc1Cl (stereo not given) + CC(Nc1ncnc2nc[nH]c12)c1cc2cccc(Cl)c2c(=O)n1-c1ccccc1
- IC50 (second compound 0.0316 µM): > 10 µM
- IC50 (second compound 0.1 µM): > 10 µM
- IC50 (second compound 0.316 µM): > 10 µM
- IC50 (second compound 1 µM): > 10 µM
- IC50 (second compound 3.16 µM): > 10 µM
- IC50 (second compound 10 µM): > 10 µM
- viability, T/C [1]: 101%
- viability, T/C [2]: 101%
- viability, T/C [3]: 84.2%
- viability, T/C [4]: 76.6%
- viability, T/C [5]: 64.2%
- viability, T/C [6]: 66.6%
- viability, T/C [7]: 100%
- viability, T/C [8]: 79.2%
- viability, T/C [9]: 80.2%
- viability, T/C [10]: 76.9%
- viability, T/C [11]: 70.8%
- viability, T/C [12]: 66.6%
- viability, T/C [13]: 104%
- viability, T/C [14]: 89.1%
- viability, T/C [15]: 91.5%
- viability, T/C [16]: 68.1%
- viability, T/C [17]: 72.4%
- viability, T/C [18]: 68.3%
- viability, T/C [19]: 103%
- viability, T/C [20]: 94.7%
- viability, T/C [21]: 81.2%
- viability, T/C [22]: 67.1%
- viability, T/C [23]: 58.7%
- viability, T/C [24]: 74.1%
- viability, T/C [25]: 82.9%
- viability, T/C [26]: 99.3%
- viability, T/C [27]: 79.9%
- viability, T/C [28]: 57.6%
- viability, T/C [29]: 72.8%
- viability, T/C [30]: 69.1%
- viability, T/C [31]: 97.8%
- viability, T/C [32]: 92.2%
- viability, T/C [33]: 77.5%
- viability, T/C [34]: 68.4%
- viability, T/C [35]: 66.9%
- viability, T/C [36]: 71.4%

Compound: Cn1nccc1Nc1nccc(-c2ccn(C(CO)c3ccc(Cl)c(F)c3)c(=O)c2)n1 (stereo not given) + CC(Nc1ncnc2nc[nH]c12)c1cc2cccc(Cl)c2c(=O)n1-c1ccccc1
- IC50 (second compound 0.0316 µM): > 10 µM
- IC50 (second compound 0.1 µM): > 10 µM
- IC50 (second compound 0.316 µM): > 10 µM
- IC50 (second compound 1 µM): > 10 µM
- IC50 (second compound 3.16 µM): > 10 µM
- IC50 (second compound 10 µM): > 10 µM
- viability, T/C [1]: 114%
- viability, T/C [2]: 91.8%
- viability, T/C [3]: 116%
- viability, T/C [4]: 103%
- viability, T/C [5]: 115%
- viability, T/C [6]: 90.4%
- viability, T/C [7]: 109%
- viability, T/C [8]: 99.9%
- viability, T/C [9]: 99.2%
- viability, T/C [10]: 85.5%
- viability, T/C [11]: 104%
- viability, T/C [12]: 81%
- viability, T/C [13]: 80.2%
- viability, T/C [14]: 96.7%
- viability, T/C [15]: 87.5%
- viability, T/C [16]: 88.8%
- viability, T/C [17]: 118%
- viability, T/C [18]: 83.5%
- viability, T/C [19]: 88.4%
- viability, T/C [20]: 108%
- viability, T/C [21]: 98.4%
- viability, T/C [22]: 113%
- viability, T/C [23]: 111%
- viability, T/C [24]: 84.2%
- viability, T/C [25]: 101%
- viability, T/C [26]: 97.6%
- viability, T/C [27]: 97.6%
- viability, T/C [28]: 85.5%
- viability, T/C [29]: 108%
- viability, T/C [30]: 96.3%
- viability, T/C [31]: 97.1%
- viability, T/C [32]: 84.1%
- viability, T/C [33]: 95.8%
- viability, T/C [34]: 94%
- viability, T/C [35]: 125%
- viability, T/C [36]: 73.9%
